Values of other authors as cited in patent publication US6555140B1, “Composition and method for enhancing male fertility and libido” (priority 1999, dated 2003).

What was measured:
[1] = in water
[2] = for share of the ingested amount metabolically degraded: transported from inside the intestine into the blood stream

| Compound | Solubility [1] | share of what is ingested metabolically available [2] | share of the ingested amount metabolically degraded [2] |
| --- | --- | --- | --- |
| NCCCCNCCCN [Spermidine Free Base, Spermidine] | Soluble in water up to 50 mg/ml | about 70% | about 30% |
| NCCCNCCCCNCCCN [Spermine Free Base, Spermine] | Soluble in water up to 50 mg/ml | about 70% | about 30% |
